Data as given in patent US10894087B2, “Multi-arm polymeric prodrug conjugates of cabazitaxel-based compounds” (Nektar Therapeutics, priority 2010, dated 2021).
Read-outs that look alike come from different tables or passages of the source.

What was measured:
[1] = Maximum tolerated dose (MTD) study of PEGylated conjugates of cabazitaxel in athymic mice; format: in vivo, female athymic nu/nu mice; details: qw x 3, iv; for BW Nadir / BW Nadir (day) / Treatment-Related Deaths: MTD study 20K conjugates; for Treatment-Related Deaths: N=5
Description: Purpose. This study was performed to determine appropriate doses of each compound for tumor xenograft studies. In those studies, it is desirable to administer the maximum dose of test compound that will not cause excessive loss of body weight. In general, loss of ˜15% of the initial body weight of the animal is typically the maximum desired.
Experimental procedure. MTD for 4-arm-conjugated to cabazitaxel were determined in female athymic nu/nu mice using standard methods. Briefly, 8-12 week old mice were administered test compounds or cabazitaxel intravenously at one week intervals for a total of three doses per mouse (qw×3, iv) as shown in Tables 1 and 2. For all PEG-conjugated test compounds, the doses of both the conjugate and released cabazitaxel, calculated from the cabazitaxel content of the respective conjugate, are shown. […] PEG-cabazitaxel conjugates were prepared in D5W. […] Mice were observed daily for clinical signs and body weights were recorded on days 1-5 and then biweekly until the end of study. All procedures were conducted in compliance with IACUC requirements. […] For any group with two measurements of mean body weight loss of greater than 20%, dosing was stopped and recovery was allowed. Within a group with greater than 20% mean weight loss, individual animals greater than 30% body weight loss were euthanized. Compound dosing was terminated for any group in which mean weight loss exceeded 20% or >10% of animals died. Moribund animals were euthanized and all animals were euthanized at end of study (day 30).
Results. The results for the study MTD “20K Conjugates” are summarized in Table 3 and FIG. 1 while the results for the MTD “30K and 40K Conjugates” study are summarized Table 4 and FIG. 2. […] It should be noted that this is not meant to be a definitive MTD, but is simply a guide to select an appropriate dose for conducting tumor xenograft studies using this administration route and schedule. Note too, that these MTD are given as cabazitaxel equivalents. The actual dose of each conjugate must be corrected for the wt % of cabazitaxel in that specific conjugate.

[2] = system: H460 non-small cell lung cancer (NSCLC) implants; details: for % TGD / Median TTE (Median Time to Endpoint) / TGD (tumor growth delay compared to vehicle) / CR (Number of Complete Regressions) / Deaths / PR (Number of Partial Regressions) / TFS (Number of Tumor Free Survivors) / MTV (Median Tumor Volume): iv, qwk x 3; for CR (Number of Complete Regressions) / Deaths / PR (Number of Partial Regressions) / TFS (Number of Tumor Free Survivors): N=10; for Complete regression, i.e., no detectable tumor (number of animals): through day 45, dose not given
Description: Purpose. Studies were conducted to assess the growth inhibitory effects of PEGylated-conjugates of cabazitaxel on H460 non-small cell lung cancer (NSCLC) implants in athymic nu/nu mice.
Experimental plan. These studies were conducted using routine methods and materials that are familiar to those skilled in the art. Briefly, 8 to 12 week old female nu/nu mice were injected subcutaneously in the flank with 1×10^7 H460 tumor cells in 0.2 mL sterile buffer. […] Animals received three intravenous doses of test article at one week intervals beginning on day 1. Cabazitaxel solutions were prepared in D5W containing 5% Tween 80:10% ethanol. PEG-cabazitaxel conjugates were prepared in D5W. The administration volume for all test articles was 10 mL/kg. The test doses were selected to represent the MTD and ½ the MTD for each test compound. The tables list the actual mg/kg for each test article and the corresponding cabazitaxel equivalent calculated based on the weight-percent cabazitaxel content for each PEGylated conjugate.
Animals were weighed on days 1-5, 7, 9, 11, 13 then biweekly until the end of the study. Tumor sizes were measured using calipers biweekly throughout the study and tumor volumes were calculated using the formula for an ellipsoid sphere: L×W^2/2=mm^3, where L and W are the major axis dimensions of the tumor in mm. Additional parameters that were monitored were the number of non-specific deaths, number of partial and complete tumor regressions, number of tumor-free survivors, and the time required for individual animals' tumors to reach 2000 mm^3. The median time for a tumor to reach 2000 mm^3 in the treatment groups (T) and control group (C) was used to calculate of the overall delay in the growth of the median tumor (TGD). Animals were monitored individually until reaching the experimental endpoint: tumor size of 2000 mm^3 or 45 days, whichever came first. […] When the study endpoint was reached, the animals were euthanized.

[3] = 20K conjugate xenograft study, 12.5 mg/kg cabazitaxel eq.
[4] = 20K conjugate xenograft study, 25 mg/kg cabazitaxel eq.
[5] = 20K conjugate xenograft study, 10 mg/kg cabazitaxel eq.
[6] = 20K conjugate xenograft study, 20 mg/kg cabazitaxel eq.
[7] = 30K and 40K conjugate xenograft study, 6 mg/kg cabazitaxel eq.
[8] = 30K and 40K conjugate xenograft study, 12 mg/kg cabazitaxel eq.
[9] = 30K and 40K conjugate xenograft study, 10 mg/kg cabazitaxel eq.
[10] = 30K and 40K conjugate xenograft study, 20 mg/kg cabazitaxel eq.
[11] = 30K and 40K conjugate xenograft study
[12] = 30K and 40K conjugate xenograft study, 15 mg/kg cabazitaxel eq.
[13] = 30K and 40K conjugate xenograft study, 30 mg/kg cabazitaxel eq.

4-ARM-PEG20K-Acetate-Linked Cabazitaxel [4-arm-PEG20K-CM-Cabazitaxel]
BW Nadir ([1]; 7.5 mg/kg cabazitaxel eq.): −3.4% | BW Nadir (day) ([1]; 7.5 mg/kg cabazitaxel eq.): 3 days | Treatment-Related Deaths ([1]; 7.5 mg/kg cabazitaxel eq.): 0 | BW Nadir ([1]; 15 mg/kg cabazitaxel eq.): −2.0% | BW Nadir (day) ([1]; 15 mg/kg cabazitaxel eq.): 3 days | Treatment-Related Deaths ([1]; 15 mg/kg cabazitaxel eq.): 0 | BW Nadir ([1]; 30 mg/kg cabazitaxel eq.): −10.2% | BW Nadir (day) ([1]; 30 mg/kg cabazitaxel eq.): 23 days | Treatment-Related Deaths ([1]; 30 mg/kg cabazitaxel eq.): 0 | Estimated MTD, cabazitaxel equivalents ([1]; athymic nu/nu mice, guide value, not a definitive MTD): 25 mg/kg | % TGD [2, 3]: 99% | Median TTE (Median Time to Endpoint) [2, 3]: 36.8 days | TGD (tumor growth delay compared to vehicle) [2, 3]: 18.3 days | CR (Number of Complete Regressions) [2, 3]: 0 | Deaths [2, 3]: 0 | PR (Number of Partial Regressions) [2, 3]: 0 | TFS (Number of Tumor Free Survivors) [2, 3]: 0 | % TGD [2, 4]: 154% | MTV (Median Tumor Volume) [2, 4]: 358 mm^3 | TGD (tumor growth delay compared to vehicle) [2, 4]: 28.5 days | CR (Number of Complete Regressions) [2, 4]: 0 | Deaths [2, 4]: 0 | PR (Number of Partial Regressions) [2, 4]: 10 | TFS (Number of Tumor Free Survivors) [2, 4]: 0

4-ARM-PEG20K-Alaninate-Linked Cabazitaxel Conjugate [4-arm-PEG20K-CM-alanine-Cabazitaxel]
% TGD [2, 5]: 93% | MTV (Median Tumor Volume) [2, 5]: 908 mm^3 | Median TTE (Median Time to Endpoint) [2, 5]: 35.6 days | TGD (tumor growth delay compared to vehicle) [2, 5]: 17.1 days | CR (Number of Complete Regressions) [2, 5]: 0 | PR (Number of Partial Regressions) [2, 5]: 0 | TFS (Number of Tumor Free Survivors) [2, 5]: 0 | % TGD [2, 6]: 154% | MTV (Median Tumor Volume) [2, 6]: 1470 mm^3 | TGD (tumor growth delay compared to vehicle) [2, 6]: 28.5 days | CR (Number of Complete Regressions) [2, 6]: 0 | PR (Number of Partial Regressions) [2, 6]: 0 | TFS (Number of Tumor Free Survivors) [2, 6]: 0

4-ARM-PEG20K-Glycinate-Linked Cabazitaxel Conjugate [4-arm-PEG20K-CM-glycine-Cabazitaxel]
% TGD [2, 5]: 63% | MTV (Median Tumor Volume) [2, 5]: 1200 mm^3 | Median TTE (Median Time to Endpoint) [2, 5]: 30.1 days | TGD (tumor growth delay compared to vehicle) [2, 5]: 11.6 days | CR (Number of Complete Regressions) [2, 5]: 0 | PR (Number of Partial Regressions) [2, 5]: 0 | TFS (Number of Tumor Free Survivors) [2, 5]: 0 | % TGD [2, 6]: 154% | MTV (Median Tumor Volume) [2, 6]: 1183 mm^3 | TGD (tumor growth delay compared to vehicle) [2, 6]: 28.5 days | CR (Number of Complete Regressions) [2, 6]: 0 | PR (Number of Partial Regressions) [2, 6]: 4 | TFS (Number of Tumor Free Survivors) [2, 6]: 0

4-ARM-PEG30K-Alaninate-Linked Cabazitaxel Conjugate [4-arm-PEG30K-CM-alanine-Cabazitaxel]
% TGD [2, 7]: 39% | Median TTE (Median Time to Endpoint) [2, 7]: 20.8 days | TGD (tumor growth delay compared to vehicle) [2, 7]: 5.9 days | CR (Number of Complete Regressions) [2, 7]: 0 | PR (Number of Partial Regressions) [2, 7]: 0 | TFS (Number of Tumor Free Survivors) [2, 7]: 0 | % TGD [2, 8]: 158% | MTV (Median Tumor Volume) [2, 8]: 600 mm^3 | Median TTE (Median Time to Endpoint) [2, 8]: 38.6 days | TGD (tumor growth delay compared to vehicle) [2, 8]: 23.6 days | CR (Number of Complete Regressions) [2, 8]: 0 | PR (Number of Partial Regressions) [2, 8]: 0 | TFS (Number of Tumor Free Survivors) [2, 8]: 0

4-ARM-PEG30K-Glycinate-Linked Cabazitaxel Conjugate [4-arm-PEG30K-CM-glycine-Cabazitaxel]
% TGD [2, 9]: 119% | MTV (Median Tumor Volume) [2, 9]: 726 mm^3 | Median TTE (Median Time to Endpoint) [2, 9]: 32.7 days | TGD (tumor growth delay compared to vehicle) [2, 9]: 17.8 days | CR (Number of Complete Regressions) [2, 9]: 0 | PR (Number of Partial Regressions) [2, 9]: 1 | TFS (Number of Tumor Free Survivors) [2, 9]: 0 | % TGD [2, 10]: 208% | MTV (Median Tumor Volume) [2, 10]: 478 mm^3 | TGD (tumor growth delay compared to vehicle) [2, 10]: 31.1 days | CR (Number of Complete Regressions) [2, 10]: 1 | PR (Number of Partial Regressions) [2, 10]: 6 | TFS (Number of Tumor Free Survivors) [2, 10]: 1 | Complete regression, i.e., no detectable tumor (number of animals) [2, 11]: one

4-ARM-PEG40K-Alaninate-Linked Cabazitaxel Conjugate [4-arm-PEG40K-CM-alanine-Cabazitaxel]
% TGD [2, 9]: 101% | Median TTE (Median Time to Endpoint) [2, 9]: 30.1 days | TGD (tumor growth delay compared to vehicle) [2, 9]: 15.1 days | CR (Number of Complete Regressions) [2, 9]: 0 | PR (Number of Partial Regressions) [2, 9]: 0 | TFS (Number of Tumor Free Survivors) [2, 9]: 0 | % TGD [2, 10]: 208% | MTV (Median Tumor Volume) [2, 10]: 184 mm^3 | TGD (tumor growth delay compared to vehicle) [2, 10]: 31.1 days | CR (Number of Complete Regressions) [2, 10]: 1 | PR (Number of Partial Regressions) [2, 10]: 4 | TFS (Number of Tumor Free Survivors) [2, 10]: 1 | Complete regression, i.e., no detectable tumor (number of animals) [2, 11]: one

4-ARM-PEG40K-Glycinate-Linked Cabazitaxel Conjugate [4-arm-PEG40K-CM-glycine-Cabazitaxel]
% TGD [2, 12]: 146% | MTV (Median Tumor Volume) [2, 12]: 1632 mm^3 | Median TTE (Median Time to Endpoint) [2, 12]: 36.8 days | TGD (tumor growth delay compared to vehicle) [2, 12]: 21.9 days | CR (Number of Complete Regressions) [2, 12]: 0 | PR (Number of Partial Regressions) [2, 12]: 0 | TFS (Number of Tumor Free Survivors) [2, 12]: 0 | % TGD [2, 13]: 208% | MTV (Median Tumor Volume) [2, 13]: 32 mm^3 | TGD (tumor growth delay compared to vehicle) [2, 13]: 31.1 days | CR (Number of Complete Regressions) [2, 13]: 1 | TFS (Number of Tumor Free Survivors) [2, 13]: 1 | PR (Number of Partial Regressions) ([2]; 30K and 40K conjugate xenograft study, 30 mg/kg cabazitaxel eq., 30 mg/kg): 9 | PR (Number of Partial Regressions) ([2]; 30K and 40K conjugate xenograft study, 30 mg/kg cabazitaxel eq., listed as 4-arm-PEG40K-CM-glycine-cabazitaxel, 30 mg/kg): 10 | Complete regression, i.e., no detectable tumor (number of animals) [2, 11]: one
